According to patent US11109593B2, “Isoxazolin-5-one derivative and herbicide containing same as active ingredient” (HOKKO CHEMICAL INDUSTRY CO., LTD., priority 2017, dated 2021):

Legend:
Assay type in all cases: in vivo
Echinochloa crus-galli [1] = assay: Test Example 2: herbicidal effect test by treatment during growing period in paddy rice cultivation (seven days after seeding); details: 120 g/10a active ingredient, assessed 14 days after treatment, dry weight vs untreated area
Summary of the method: (§1)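 Sow 30 seeds per species (0–1 cm) into puddled, fertilized paddy soil; keep flooded ~3 cm in greenhouse. Day 7 after seeding: drop water-diluted emulsion, 120 g a.i./10 ares. Harvest 14 d post-treatment; compare dry weight with untreated pots (duplicate).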

Scirpus juncoides [2] = assay: as above; details: 120 g/10a active ingredient, assessed 14 days after treatment, dry weight vs untreated area
Summary of the method: as §1

[3] = system: broad leaf weeds (Lindernia pyxidaria and Monochoria vaginalis); assay: as above; details: 120 g/10a active ingredient, assessed 14 days after treatment, dry weight vs untreated area
Summary of the method: as §1

Echinochloa crus-galli [4] = assay: Test Example 1: herbicidal effect test by treatment of rice paddy soil (immediately after seeding); details: 120 g/10a active ingredient, dry weight vs untreated area, 14 days after treatment
Summary of the method: (§2)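 Application occurs immediately after seeding, with diluted emulsion added to paddy water (about 3 cm deep) over puddled, fertilized soil at 120 g active ingredient per 10 ares. Herbicidal rate is calculated from mean dry weight against untreated controls 14 days later.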

Scirpus juncoides [5] = assay: as above; details: 120 g/10a active ingredient, dry weight vs untreated area, 14 days after treatment
Summary of the method: as §2

[6] = system: broad leaf weeds (Lindernia pyxidaria and Monochoria vaginalis); assay: as above; details: 120 g/10a active ingredient, dry weight vs untreated area, 14 days after treatment
Summary of the method: as §2

southern crabgrass [7] = assay: Test Example 4: herbicidal effect test by treatment of leave and stem in dry field farming (seven days after seeding); details: 120 g/10a active ingredient; emulsion sprayed seven days after seeding; evaluated 14 days after treatment
Summary of the method: (§3)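 Duplicate pots were scored 14 days post-spray by dry weight, herbicidal rate = {1 − treated/untreated average dry weight} × 100. The water-diluted emulsion, equivalent to 120 g active ingredient per 10 ares in 100 L, was applied seven days after sowing 20 seeds each into the upper 1 cm of alluvial soil.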

Echinochloa crus-galli [8] = assay: as above; details: 120 g/10a active ingredient; emulsion sprayed seven days after seeding; evaluated 14 days after treatment
Summary of the method: as §3

Chenopodium album [9] = assay: as above; details: 120 g/10a active ingredient; emulsion sprayed seven days after seeding; evaluated 14 days after treatment
Summary of the method: as §3

Amaranthus viridis [10] = assay: as above; details: 120 g/10a active ingredient; emulsion sprayed seven days after seeding; evaluated 14 days after treatment
Summary of the method: as §3

southern crabgrass [11] = assay: Test Example 3: herbicidal effect test by treatment of dry field farming soil (one day after seeding); details: 120 g/10a active ingredient, evaluated 14 days after treatment
Summary of the method: (§4)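 Weeds were seeded into the upper soil layer of alluvial field soil and, one day afterwards, the soil surface was sprayed with water-diluted emulsion delivering 120 g active ingredient per 10 ares. Mean plant dry weight relative to untreated pots after 14 days gave the herbicidal rate, tested in duplicate.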

Echinochloa crus-galli [12] = assay: as above; details: 120 g/10a active ingredient, evaluated 14 days after treatment
Summary of the method: as §4

Chenopodium album [13] = assay: as above; details: 120 g/10a active ingredient, evaluated 14 days after treatment
Summary of the method: as §4

Amaranthus viridis [14] = assay: as above; details: 120 g/10a active ingredient, evaluated 14 days after treatment
Summary of the method: as §4

SMILES	Herbicidal rate (%) Echinochloa crus-galli (Echinochloa crus-galli [1])	Herbicidal rate (%) Scirpus juncoides (Scirpus juncoides [2])	Herbicidal rate (%) Lindernia pyxidaria [3]	Herbicidal rate (%) Monochoria vaginalis [3]	Herbicidal rate (%) Echinochloa crus-galli (Echinochloa crus-galli [4])	Herbicidal rate (%) Scirpus juncoides (Scirpus juncoides [5])	Herbicidal rate (%) Lindernia pyxidaria [6]	Herbicidal rate (%) Monochoria vaginalis [6]	herbicidal effect (herbicidal rate), southern crabgrass (southern crabgrass [7])	herbicidal effect (herbicidal rate), Echinochloa crus-galli (Echinochloa crus-galli [8])	herbicidal effect (herbicidal rate), Chenopodium album (Chenopodium album [9])	herbicidal effect (herbicidal rate), Amaranthus viridis (Amaranthus viridis [10])	herbicidal rate, southern crabgrass (southern crabgrass [11])	herbicidal rate, Echinochloa crus-galli (Echinochloa crus-galli [12])	herbicidal rate, Chenopodium album (Chenopodium album [13])	herbicidal rate, Amaranthus viridis (Amaranthus viridis [14])
CCCC(c1ccccc1)n1oc(=O)c(Cc2ccccc2N(S(=O)(=O)C(F)(F)F)S(=O)(=O)C(F)(F)F)c1C (stereo not drawn) [Compound 1-1039]	100%	80%	70%	80%	90%	90%	90%	80%	90%	90%	40%	40%	90%	90%	0%	0%
Cc1c(Cc2ccccc2N(S(=O)(=O)C(F)(F)F)S(=O)(=O)C(F)(F)F)c(=O)on1C(C)C [Compound 1-962]	90%	80%	60%	80%	100%	90%	100%	100%	60%	90%	50%	40%	90%	90%	70%	80%
CCC(C)n1oc(=O)c(Cc2ccccc2N(C(=O)OCC2CCCO2)S(=O)(=O)C(F)(F)F)c1C (stereo not drawn) [Compound 1-829]	90%	90%	90%	90%	90%	90%	90%	90%	90%	90%	40%	40%	90%	90%	90%	90%
COCC(C)n1oc(=O)c(Cc2ccccc2N(C(C)=O)S(=O)(=O)C(F)(F)F)c1C (stereo not drawn) [Compound 1-304]	90%	90%	90%	90%	90%	90%	90%	90%	90%	90%	40%	40%	90%	90%	90%	90%
Cc1c(Cc2ccccc2NS(=O)(=O)C(F)(F)F)c(=O)on1CC(C)(C)C [Compound 1-106]	90%	90%	90%	90%	90%	90%	90%	90%	90%	90%	40%	40%	90%	90%	90%	90%
CSCCn1oc(=O)c(Cc2ccccc2N(C(=O)CC(C)C)S(=O)(=O)C(F)(F)F)c1C [Compound 1-358]	90%	90%	90%	90%	90%	90%	90%	90%	90%	90%	40%	40%	90%	90%	90%	90%
COC(=O)N(c1ccccc1Cc1c(C)n(Cc2ccc(F)cc2)oc1=O)S(=O)(=O)C(F)(F)F [Compound 1-597]	90%	90%	80%	100%	90%	90%	90%	100%	50%	40%	40%	40%	90%	90%	0%	0%
CCC(c1ccccc1)n1oc(=O)c(Cc2ccccc2N(S(=O)(=O)C(F)(F)F)S(=O)(=O)C(F)(F)F)c1C (stereo not drawn) [Compound 1-1038]	90%	90%	60%	80%	90%	90%	90%	90%	60%	90%	40%	40%	90%	90%	0%	0%
CCC(c1ccccc1)n1oc(=O)c(Cc2ccccc2NS(=O)(=O)C(F)(F)F)c1C (stereo not drawn) [Compound 1-211]	90%	90%	60%	80%	90%	90%	90%	90%	60%	90%	50%	40%	90%	90%	0%	0%
